Reference: PubChem BioAssay AID624491 (Broad Institute, 2012)

Each compound was assayed on D54 ERlucT glycosylation luciferase reporter, luminescence, 24 h (assay: N-linked glycosylation inhibitors, luciferase reporter, dose response, D54 ERlucT cells, luminescence, cherry-picks (AID 624491);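 further: signal gain reflects blocked N-linked glycosylation of a luciferase reporter; actives raise luciferase signal so AC26 marks activators of the reporter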).

Question: With `CCOc1ccc(N2C(=O)Nc3ccccc3C2(O)C(=O)N2CCN(c3ccccn3)CC2)cc1` (centres undefined) as the compound, how does the AC26 read?
Answer: 880 nM

Question: For `O=C1C=C(c2cccs2)C[C@H](c2ccccc2)[C@H]1n1nnc([N+](=O)[O-])n1`, which AC26 is on record?
Answer: 260 nM

Question: Which AC26 does the source give for `Cc1cc(=O)[nH]c2c(C)cc(S(=O)(=O)N3CCCCC3)cc12` here?
Answer: 4410 nM

Question: For `CCN(CC)c1ccc(/C=C2\C(=O)N(c3nnc(C)c(=O)[nH]3)N=C2C)cc1`, which AC26 is on record?
Answer: 1420 nM

Question: How did the AC26 turn out when `CC(=O)N1N=C(c2ccc(NS(=O)(=O)c3ccccc3)cc2)CC1c1ccco1` (centres undefined) was run?
Answer: 912 nM

Question: For `COc1ccc(OC)c(-c2nnc3n2N=C(c2ccc(OC)c(OC)c2)CS3)c1`, which AC26 is on record?
Answer: 4160 nM

Question: `COc1cc(C2C(C#N)=C(N)Oc3cc(O)ccc32)cc(OC)c1OC` (centres undefined) was tested. Which AC26 did it give?
Answer: 1020 nM

Question: With `CCc1ccc2nc3nc(C)cc(C)c3c(N)c2c1` as the compound, how does the AC26 read?
Answer: 2810 nM

Question: `CCOC(=O)N1CCC(NC(=O)c2ccc3c(c2)N=C(C)c2c(C)ccc(C)c2S3)CC1` was tested. Which AC26 did it give?
Answer: 441 nM

Question: `Cn1nc(-c2ccccc2)c(CSc2ccccc2Cl)c1Cl` was tested. Which AC26 did it give?
Answer: 6120 nM

Question: For `Cc1ccc(C(=O)c2cc([N+](=O)[O-])ccc2N2CCOCC2)cc1C`, which AC26 is on record?
Answer: 168 nM

Question: How did the AC26 turn out when `Cc1ccc(NC2=NC3(CCCC3)N=C(N)N2)c(C)c1` was run?
Answer: 4230 nM

Question: For `COC(=O)c1cc(OC)c(OC)cc1NC(=S)NC(=O)c1ccco1`, which AC26 is on record?
Answer: 607 nM

Question: Which AC26 does the source give for `COc1cc(NC(=O)CN2c3cccc4cccc(c34)S2(=O)=O)cc(OC)c1OC` here?
Answer: 1770 nM

Question: For `O=C(NC1CCCCCC1)c1c2c(nc3ccccc13)CCN(Cc1ccccc1)C2`, which AC26 is on record?
Answer: 5800 nM

Question: For `Cc1cccc(CCNC(=O)CCCOc2cc(=O)n(C)c3ccccc23)c1`, which AC26 is on record?
Answer: 4450 nM

Question: For `COc1ccc(C=CC(=O)c2ccc(OC)c(OC)c2O)cc1OC`, which AC26 is on record?
Answer: 4390 nM

Question: With `NC(=O)CC(NC(=O)Cc1ccc(Br)cc1)c1ccc(NC2CCC2)c([N+](=O)[O-])c1` (centres undefined) as the compound, how does the AC26 read?
Answer: 2760 nM

Question: Which AC26 does the source give for `COc1cc(OC)c(C2=NOC(C(=O)NCc3cccs3)C2)cc1Cl` (centres undefined) here?
Answer: 5250 nM

Question: How did the AC26 turn out when `CCc1nn2c(N(C)CCO)cc(C)nc2c1-c1ccc(F)cc1` was run?
Answer: 12800 nM

Question: With `COc1cc(C(=O)Nc2ccc3c(c2)CCN3C(C)=O)cc(OC)c1OC` as the compound, how does the AC26 read?
Answer: 1240 nM

Question: How did the AC26 turn out when `CC(=O)c1cccc(Nc2cc(C)nc3c(C)cccc23)c1` was run?
Answer: 5870 nM

Question: With `CCN(CC)CCNC(=O)c1cc2c(-c3ccc(Cl)cc3)nn(C)c2s1` as the compound, how does the AC26 read?
Answer: 3330 nM

Question: How did the AC26 turn out when `O=C(C[C@H]1C/C=C\C[C@H](Cc2ccc(F)cc2)C(=O)O[C@@H](c2ccccc2)CNC1=O)N[C@@H](CO)Cc1ccccc1` was run?
Answer: 892 nM

Question: `COc1ccc(S(=O)Cc2ccc(C(=O)N3CCN(c4cccc(C)c4C)CC3)o2)cc1` (centres undefined) was tested. Which AC26 did it give?
Answer: 1430 nM

Question: `O=C(CCl)Nc1cccc(S(=O)(=O)NC2=NCCC2)c1` was tested. Which AC26 did it give?
Answer: 939 nM

Question: Which AC26 does the source give for `N#Cc1ccc(-c2cccs2)nc1SCc1cccnc1` here?
Answer: 242 nM

Question: For `C[C@@]12C(=O)Nc3cc(F)c(F)cc3C(=O)N1[C@H]1c3cc(Cl)ccc3OC[C@@H]1[C@@H]2c1ccccc1`, which AC26 is on record?
Answer: 789 nM

Question: With `CC1CN(C(=O)c2ccc(COc3ccc4ccccc4c3)o2)CC(C)O1` (centres undefined) as the compound, how does the AC26 read?
Answer: 11200 nM

Question: Which AC26 does the source give for `Nc1nonc1C(=O)N/N=C/c1ccc([N+](=O)[O-])o1` here?
Answer: 6160 nM

Question: With `Cc1noc2ncnc(Sc3ccc(Br)cc3)c12` as the compound, how does the AC26 read?
Answer: 4470 nM

Question: How did the AC26 turn out when `COc1ccc(C(=O)NCc2nnc(SCC(=O)NO)n2Cc2ccccc2)cc1` was run?
Answer: 4440 nM

Question: `O=C(c1cn(Cc2ccccc2)nc1-c1ccccc1)N1CCN(c2ccccn2)CC1` was tested. Which AC26 did it give?
Answer: 999 nM

Question: `Nc1sc(-c2ccccc2)cc1-c1n[nH]c(=S)n1C1CCCCC1` was tested. Which AC26 did it give?
Answer: 10700 nM

Question: How did the AC26 turn out when `Nc1nc(=S)c2ncn([C@@H]3O[C@H](CO)[C@@H](O)[C@H]3O)c2[nH]1` was run?
Answer: 368 nM

Question: `O=C(NCCCn1ccnc1)c1cc(-c2ccccc2)on1` was tested. Which AC26 did it give?
Answer: 3170 nM

Question: How did the AC26 turn out when `CCOc1ccc(/C=C2\SC(N3CCCCC3)=NC2=O)cc1` was run?
Answer: 1100 nM

Question: For `O=S(=O)([N-]c1nc2ccccc2nc1-n1cc[n+](Cc2ccccc2)c1)c1ccc(Cl)cc1`, which AC26 is on record?
Answer: 101 nM

Question: Which AC26 does the source give for `COc1ccc(/C=N/NC(=O)c2sccc2OCc2ccc(F)cc2)cc1OC` here?
Answer: 1310 nM

Question: With `CC(C)(C)c1ccc(C(=O)O/N=C(\N)Cc2cccs2)cc1` as the compound, how does the AC26 read?
Answer: 11800 nM

Question: `COc1cc(-c2cc3nc(NCCc4ccncc4)ccn3n2)cc(OC)c1OC` was tested. Which AC26 did it give?
Answer: 798 nM

Question: For `COc1ccccc1/C=N/NC(=O)CSc1cc(C)nc2ccccc12`, which AC26 is on record?
Answer: 2940 nM

Question: For `COc1ccccc1N=CC1=C(O)CC(c2ccccc2)CC1=O` (centres undefined), which AC26 is on record?
Answer: 2740 nM

Question: For `COc1ccccc1C1CC(=O)Nc2cc3c(cc21)OCCO3` (centres undefined), which AC26 is on record?
Answer: 10500 nM
